Reference: ChEMBL document CHEMBL1129012, “Similarities and differences in the DNA binding/cleaving specificities and mechanisms of [SalenMn(III)]+ and [TMPPMn(III)]5+” (Bioorg Med Chem Lett, 1996)
Activity calls are given as the source filed them. The calls are words filed in the database; no cut-off is given here.

Test system: Nucleic Acid
Assay: DNA binding/cleaving affinity was determined; Active
Type: nucleic-acid assay

Substance | Activity
Complex of [SalenMn(III)]+ (Salen=N,N'-ethylenebis(salicylideneaminato)) | Active
[TMPPMn(III)] 5+ (TMPP=meso-tetrakis(4-N-methylpyridiniumyl)porphyrinato)) | Active
